Values after ≈ are worked out from the molar mass of the structure shown. Read-outs that look alike come from different tables or passages of the source.
Assays:
[1] = test system: Staphylococcus aureus MSSA (Newman); assay: broth microdilution MIC assay, Staphylococcus aureus MSSA (Newman); type: cell-based; conditions: for MIC: Staphylococcus aureus; for Antibacterial activity Staphylococcus aureus (MSSA): MIC100 class score, broth microdilution
[2] = test system: Staphylococcus aureus MRSA (COL); assay: broth microdilution MIC assay, Staphylococcus aureus MRSA (COL); type: cell-based; conditions: for MIC: Staphylococcus aureus, MRSA
[3] = test system: penicillin-, erythromycin- and tetracycline-resistant Streptococcus pneumoniae (ATCC 700677), ARSP; assay: microbe, parasite or virus in culture; type: cell-based
[4] = test system: Staphylococcus epidermidis (PCI 1200, ATCC12228); assay: broth microdilution MIC assay, Staphylococcus epidermidis; type: cell-based; conditions: ATCC12228, read-out: Antibacterial activity SE (Staphylococcus epidermidis)
[5] = test system: Bacillus subtilis (Marburg strain, ATCC6051); assay: microbe, parasite or virus in culture; type: cell-based; conditions: ATCC6051, read-out: Antibacterial activity BS (Bacillus substilis)
[6] = test system: Human hepatocytes (HepaRG cells); assay: human cytotoxicity assay in vitro (CellTiter-Glo), hepatocytes; type: cell-based; conditions: cytotoxicity class
[7] = test system: Mycobacterium smegmatis (mc(2)155, ATCC700084); assay: broth microdilution MIC assay, Mycobacterium smegmatis; conditions: MIC activity class
[8] = test system: Streptococcus pneumoniae (Chester, ATCC49619); assay: broth microdilution MIC assay, Streptococcus pneumoniae; type: cell-based; conditions: MIC100 class score, 24 h
[9] = 24 h, read-out: Antibacterial activity Staphylococcus aureus (MSSA)
[10] = read-out: Antibacterial activity MSSA (Staphylococcus aureus MSSA)
[11] = 24 h, read-out: Antibacterial activity Staphylococcus aureus (MRSA)
[12] = read-out: Antibacterial activity MRSA (Staphylococcus aureus MRSA)
[13] = ATCC700677, MIC activity class, read-out: Antibacterial activity ARSP (multi-drug resistant-SP)
[14] = MIC100 class score, broth microdilution, 24 h, read-out: Antibacterial activity Staphylococcus aureus (MRSA)
[15] = MIC100 class score, broth microdilution, 24 h
[16] = ATCC700677, read-out: Antibacterial activity ARSP (multi-drug resistant-SP)

| Structure (SMILES) | MIC [1, 9] [µg/mL] | MIC [1, 10] [µg/mL] | MIC [2, 11] [µg/mL] | MIC [2, 12] [µg/mL] | MIC [3, 13] [µg/mL] | MIC [4] [µg/mL] | MIC [5] [µg/mL] | cytotoxicity cell line H (hepatocytes) [6] | MIC [2, 14] [µg/mL] | Antibacterial activity MS (Mycobacterium smegmatis) [7] | Antibacterial activity Staphylococcus aureus (MRSA) [2, 15] | MIC [3, 16] [µg/mL] | Antibacterial activity Staphylococcus aureus (MSSA) ([1]; 24 h) | Antibacterial activity Streptococcus pneumoniae [8] |
| --- | --- | --- | --- | --- | --- | --- | --- | --- | --- | --- | --- | --- | --- | --- |
| Cc1[nH]c(-c2ccc(-c3ccccc3OC(F)(F)F)o2)nc1-c1ccccc1 [Compound 18] | 1 to 3 (≈ 2.6 to 7.81 µM) | 1 to 3 (≈ 2.6 to 7.81 µM) | 3 to 10 (≈ 7.81 to 26 µM) | 3 to 10 (≈ 7.81 to 26 µM) | < 1 | 3 to 10 (≈ 7.81 to 26 µM) | 1 to 3 (≈ 2.6 to 7.81 µM) | 2 | – | – | – | – | – | – |
| Cc1nc(-c2ccc(-c3cccc(OC(F)(F)F)c3)o2)[nH]c1-c1ccccc1 [Compound 34] | 1 to 3 (≈ 2.6 to 7.81 µM) | 1 to 3 (≈ 2.6 to 7.81 µM) | – | 1 to 3 (≈ 2.6 to 7.81 µM) | < 1 | 20 to 50 (≈ 52 to 130 µM) | 3 to 10 (≈ 7.81 to 26 µM) | 2 | 1 to 3 (≈ 2.6 to 7.81 µM) | 2 (MIC100 of 11-201 μg/ml) | – | – | – | – |
| Cc1[nH]c(-c2ccc(-c3ccc(C(F)(F)F)cc3)o2)nc1-c1ccc(Cl)cc1 [Compound 47] | – | 1 to 3 (≈ 2.48 to 7.45 µM) | – | 3 to 10 (≈ 7.45 to 24.8 µM) | < 1 | 3 to 10 (≈ 7.45 to 24.8 µM) | 3 to 10 (≈ 7.45 to 24.8 µM) | – | – | 3 (MIC100 of 3-10 μg/ml) | 3 (MIC100 of 3-10 μg/ml) | – | – | – |
| Cc1nc(-c2ccc(-c3cc(C(F)(F)F)cc(C(F)(F)F)c3)o2)[nH]c1-c1ccccc1 [Compound 35] | 3 to 10 (≈ 6.88 to 22.9 µM) | 3 to 10 (≈ 6.88 to 22.9 µM) | 20 to 50 (≈ 45.8 to 115 µM) | 20 to 50 (≈ 45.8 to 115 µM) | 6 to 10 (≈ 13.8 to 22.9 µM) | 20 to 50 (≈ 45.8 to 115 µM) | 3 to 10 (≈ 6.88 to 22.9 µM) | – | – | – | – | – | – | – |
| Cc1nc(-c2ccc(-c3ccccc3OC(F)(F)F)o2)[nH]c1-c1ccccc1Cl [Compound 19] | – | 20 to 50 (≈ 47.8 to 119 µM) | – | 20 to 50 (≈ 47.8 to 119 µM) | – | – | – | 3 | – | 2 (MIC100 of 11-201 μg/ml) | – | 2 to 5 (≈ 4.78 to 11.9 µM) | – | – |
| Cc1[nH]c(-c2ccc(-c3ccc(Cl)c(C(F)(F)F)c3)o2)nc1-c1ccccc1 [Compound 39] | 3 to 10 (≈ 7.45 to 24.8 µM) | 1 to 3 (≈ 2.48 to 7.45 µM) | – | 3 to 10 (≈ 7.45 to 24.8 µM) | 2 to 5 (≈ 4.97 to 12.4 µM) | 1 to 3 (≈ 2.48 to 7.45 µM) | 3 to 10 (≈ 7.45 to 24.8 µM) | – | 3 to 10 (≈ 7.45 to 24.8 µM) | – | – | – | – | – |
| Cc1[nH]c(-c2ccc(-c3ccc(OC(F)(F)F)cc3)o2)nc1-c1ccc(Cl)cc1 [Compound 48] | – | 3 to 10 (≈ 7.16 to 23.9 µM) | – | 3 to 10 (≈ 7.16 to 23.9 µM) | < 1 | 11 to 201 (≈ 26.3 to 480 µM) | 3 to 10 (≈ 7.16 to 23.9 µM) | 2 | – | – | – | – | 3 (MIC100 of 3-10 μg/ml) | – |
| Cc1[nH]c(-c2ccc(-c3ccccc3OC(F)(F)F)o2)nc1-c1ccc(F)cc1 [Compound 23, 4-(4-Fluoro-phenyl)-5-methyl-2-[5-(2-trifluoromethoxy-phenyl)-furan-2-yl]-1H-imidazole] | – | 1 to 3 (≈ 2.49 to 7.46 µM) | – | 3 to 10 (≈ 7.46 to 24.9 µM) | < 1 | 20 to 50 (≈ 49.7 to 124 µM) | 1 to 3 (≈ 2.49 to 7.46 µM) | 3 | – | – | – | – | 3 (MIC100 of 3-10 μg/ml) | – |
| Cc1nc(-c2ccc(-c3cccc(OC(F)(F)F)c3)o2)[nH]c1-c1ccc(F)cc1 [Compound 37] | – | 3 to 10 (≈ 7.46 to 24.9 µM) | – | 3 to 10 (≈ 7.46 to 24.9 µM) | 2 to 5 (≈ 4.97 to 12.4 µM) | 20 to 50 (≈ 49.7 to 124 µM) | 3 to 10 (≈ 7.46 to 24.9 µM) | 3 | – | 2 (MIC100 of 11-201 μg/ml) | – | – | 3 (MIC100 of 3-10 μg/ml) | – |
| Cc1[nH]c(-c2ccc(-c3ccc(Cl)cc3)s2)nc1-c1ccccc1 [Compound 6] | – | – | – | – | 2 to 5 (≈ 5.7 to 14.3 µM) | – | 11 to 201 (≈ 31.4 to 573 µM) | – | – | 2 (MIC100 of 11-201 μg/ml) | – | – | – | 3 (MIC100 of 2-5 μg/ml) |
| Cc1[nH]c(-c2ccc(-c3ccccc3OC(F)(F)F)o2)nc1-c1ccc(Cl)cc1 [Compound 24] | – | 3 to 10 (≈ 7.16 to 23.9 µM) | – | 3 to 10 (≈ 7.16 to 23.9 µM) | < 1 | 20 to 50 (≈ 47.8 to 119 µM) | 3 to 10 (≈ 7.16 to 23.9 µM) | 2 | – | – | – | – | 3 (MIC100 of 3-10 μg/ml) | – |
| Cc1[nH]c(-c2ccc(-c3ccccc3F)s2)nc1-c1ccccc1 [Compound 15] | – | – | – | – | – | – | – | – | – | 2 (MIC100 of 11-201 μg/ml) | – | 2 to 5 (≈ 5.98 to 15 µM) | – | 3 (MIC100 of 2-5 μg/ml) |
| Cc1nc(-c2ccc(-c3ccccc3OC(F)(F)F)o2)[nH]c1-c1cccc(Cl)c1 [Compound 21] | – | 1 to 3 (≈ 2.39 to 7.16 µM) | – | – | < 1 | 20 to 50 (≈ 47.8 to 119 µM) | 3 to 10 (≈ 7.16 to 23.9 µM) | 3 | – | – | 3 (MIC100 of 3-10 μg/ml) | – | 3 (MIC100 of 3-10 μg/ml) | – |

Reference: US10322110B2, “Imidazole-based antimicrobial agents” (priority 2014, dated 2019)
